Measurements reported in PMC6514978, “Synthesis, Antibacterial Activities, Mode of Action and Acute Toxicity Studies of New Oxazolidinone-Fluoroquinolone Hybrids” (Molecules, 2019).
In brackets after ≈: the same amount, converted by molar mass.

Tests used:
[1] = test system: S. agalactiae^R (13B317), levofloxacin-resistant S. agalactiae; experiment: MIC, broth microdilution (CLSI), clinical isolate; format: cell-based; conditions: Streptococcus agalactiae; levofloxacin-resistant S. agalactiae (13B317)
From the text: 6 standard strains and 3 clinical isolates were used to the preliminary evaluation of in vitro antibacterial activities of oxazolidinone-fluoroquinolone hybrids. For the further evaluation of hybrids OBP-4 and OBP-5, 263 clinical isolates including S. aureus (46), S. haemolyticus(32), S. epidermidis (10), E. faecalis (72), E. faecium (47), S. pneumoniae (13), H. parasuis (34), S. suis (9), and 8 resistant strains including MRSA, MRSE, CIP-resistant S. aureus and S. haemolyticus, VAN and quinolone-resistant S. pneumoniae, LZD-resistant E. faecalis, LZD/VAN and quinolone-resistant E. faecium were collected and tested.
Susceptibility testing of oxazolidinone-fluoroquinolone hybrids against various bacteria was performed by the broth microdilution method as outlined by the Clinical and Laboratory Standards Institute (CLSI). Three types of media, including cation-adjusted Mueller Hinton broth, Haemophilus Test Medium and cation-adjusted Mueller Hinton broth that contained 3%–5% lysed horse blood, were used to culture the corresponding bacteria. All compounds including comparator drugs were dissolved in an appropriate solvent at a concentration of 2.048 mg/mL and then serially diluted two-fold to provide the required concentrations. A final inoculum of 5 × 10^5 CFU/mL was used and plates were read after incubation for 16–24 h at 35 °C. […] Standard quality control strains (ATCC) were included throughout. Each determination was repeated in triplicate.

[2] = test system: S. aureus (46) clinical isolates; experiment: Susceptibility of clinical isolates (MIC); format: cell-based, Staphylococcus aureus; conditions: for Cumulative % of strains inhibited at MIC / No. of strains inhibited at MIC: S. aureus (46)
Procedure, shortened: (§1)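 Broth microdilution per CLSI in cation-adjusted Mueller Hinton broth, Haemophilus Test Medium, or cation-adjusted MHB with 3%–5% lysed horse blood, as suited to each organism. Final inoculum 5 × 10^5 CFU/mL; plates read after 16–24 h at 35 °C. ATCC QC strains included; triplicate determinations.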

[3] = test system: S. epidermidis (10) clinical isolates; experiment: Susceptibility of clinical isolates (MIC); format: cell-based, Staphylococcus epidermidis
Procedure, shortened: as §1

[4] = test system: S. suis (9) clinical isolates; experiment: Susceptibility of clinical isolates (MIC); format: cell-based, Streptococcus suis; conditions: for Cumulative % of strains inhibited at MIC / No. of strains inhibited at MIC: S. suis (9)
Procedure, shortened: as §1

[5] = test system: S. pneumoniae (13) clinical isolates; experiment: Susceptibility of clinical isolates (MIC); format: cell-based, Streptococcus pneumoniae; conditions: for Cumulative % of strains inhibited at MIC / No. of strains inhibited at MIC: S. pneumoniae (13)
Procedure, shortened: as §1

[6] = test system: E. faecalis (72) clinical isolates; experiment: Susceptibility of clinical isolates (MIC); format: cell-based, Enterococcus faecalis; conditions: for Cumulative % of strains inhibited at MIC / No. of strains inhibited at MIC: E. faecalis (72)
Procedure, shortened: as §1

[7] = test system: E. faecium (47) clinical isolates; experiment: Susceptibility of clinical isolates (MIC); format: cell-based, Enterococcus faecium; conditions: for Cumulative % of strains inhibited at MIC / No. of strains inhibited at MIC: E. faecium (47)
Procedure, shortened: as §1

[8] = test system: H. parasuis (34) clinical isolates; experiment: Susceptibility of clinical isolates (MIC); format: cell-based, Haemophilus parasuis; conditions: for Cumulative % of strains inhibited at MIC / No. of strains inhibited at MIC: H. parasuis (34)
Procedure, shortened: as §1

MRSE = experiment: MIC against drug-resistant strain; format: cell-based, S. epidermidis; conditions: Staphylococcus epidermidis, read-out: MIC
Procedure, shortened: as §1

[9] = test system: LZD-resistant E. faecalis; experiment: microbe, parasite or virus in culture; format: cell-based; conditions: Enterococcus faecalis
Procedure, shortened: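 Triplicate MIC determinations by CLSI broth microdilution, with ATCC quality control strains alongside. Growth medium depended on the species: cation-adjusted MHB, with or without 3%–5% lysed horse blood, or Haemophilus Test Medium. Final inoculum 5 × 10^5 CFU/mL; read at 16–24 h, 35 °C.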

[10] = test system: protein synthesis (E. coli extract-based cell-free protein expression system); experiment: In vitro transcription/translation assay (S30 T7 cell-free system, Renilla luciferase); format: biochemical
Description: The influence of hybrids OBP-4 and OBP-5 against protein synthesis was confirmed by the S30 T7 High-Yield Protein Expression System (Promega Co., Ltd.). The S30 T7 High-Yield Protein Expression System is an E. coli extract-based cell-free protein expression system, which can effectively transcribe and translate DNA fragments with a T7 promoter. The reaction system containing 1 μg plasmid DNA, 20 μL S30 Premix Plus and 18 μL T7 S30 Extract with or without compounds was incubated for 1 h at 37 °C with a rotational speed of 250 rpm, and terminated by cooling in ice for 5 min in a 96-well white multi-well plate. Then, 1.25 μL of the translation reaction mixture was added to 48.75 μL of Renilla Luciferase Assay Lysis Buffer, and mixed with 50 μL of Renilla Luciferase Assay Reagent (cat no. E2810; Promega). Renilla luciferase activity was measured on EnSpire® Multimode Plate Reader (PerkinElmer, Waltham, MA, USA). […] LZD was used as a positive control.

[11] = Enterococcus faecalis, E. faecalis, 72 clinical isolates

## CC1Sc2c(C(=O)O)c(=O)c3cc(F)c(N4CCC(O)(COc5ccc(N6C[C@H](CO)OC6=O)cc5F)CC4)cc3n21 (stereo partly drawn) [OBP-5]
[1]
  MIC: 0.031 µg/mL (≈ 0.0514 µM)
[2]; MIC 0.125 µg/mL
  Cumulative % of strains inhibited at MIC: 97.8%
  No. of strains inhibited at MIC: 3
[2]; MIC […]
  Cumulative % of strains inhibited at MIC: 100.0%
  No. of strains inhibited at MIC: 1
[2]; MIC ≤[…]
  Cumulative % of strains inhibited at MIC: 91.3%
  No. of strains inhibited at MIC: 42
[2]; Staphylococcus aureus, S. aureus, 46 clinical isolates, read-out: MIC50
  MIC50: ≤ 0.0625 µg/mL
[2]; Staphylococcus aureus, S. aureus, 46 clinical isolates, read-out: MIC90
  MIC90: ≤ 0.0625 µg/mL
[2]; Staphylococcus aureus, S. aureus, 46 clinical isolates, read-out: MIC Range
  MIC: 0.0625 to 0.25 µg/mL (≈ 0.104 to 0.414 µM)
[3]; S. epidermidis (10), MIC 0.125 µg/mL
  No. of strains inhibited at MIC: 2
[3]; S. epidermidis (10), MIC ≤[…]
  Cumulative % of strains inhibited at MIC: 80.0%
  No. of strains inhibited at MIC: 8
[3]; Staphylococcus epidermidis, S. epidermidis, 10 clinical isolates, read-out: MIC50
  MIC50: ≤ 0.0625 µg/mL
[3]; Staphylococcus epidermidis, S. epidermidis, 10 clinical isolates, read-out: MIC90
  MIC90: 0.125 µg/mL (≈ 0.207 µM)
[3]; Staphylococcus epidermidis, S. epidermidis, 10 clinical isolates, read-out: MIC Range
  MIC: 0.0625 to 0.125 µg/mL (≈ 0.104 to 0.207 µM)
[4]; MIC 0.125 µg/mL
  Cumulative % of strains inhibited at MIC: 88.9%
  No. of strains inhibited at MIC: 3
[4]; MIC 2 µg/mL
  Cumulative % of strains inhibited at MIC: 100%
  No. of strains inhibited at MIC: 1
[4]; MIC ≤[…]
  Cumulative % of strains inhibited at MIC: 55.6%
  No. of strains inhibited at MIC: 5
[4]; Streptococcus suis, S. suis, 9 clinical isolates, read-out: MIC50
  MIC50: ≤ 0.0625 µg/mL
[4]; Streptococcus suis, S. suis, 9 clinical isolates, read-out: MIC90
  MIC90: 0.125 µg/mL (≈ 0.207 µM)
[4]; Streptococcus suis, S. suis, 9 clinical isolates, read-out: MIC Range
  MIC: 0.0625 to 2 µg/mL (≈ 0.104 to 3.31 µM)
[5]; MIC 0.125 µg/mL
  Cumulative % of strains inhibited at MIC: 84.6%
  No. of strains inhibited at MIC: 4
[5]; MIC […]
  Cumulative % of strains inhibited at MIC: 100.0%
  No. of strains inhibited at MIC: 2
[5]; MIC ≤[…]
  Cumulative % of strains inhibited at MIC: 53.8%
  No. of strains inhibited at MIC: 7
[5]; S. pneumoniae, 13 clinical isolates
  MIC Range: ≤0.0625 to 0.25 µg/mL
[5]; Streptococcus pneumoniae, S. pneumoniae, 13 clinical isolates, read-out: MIC50
  MIC50: ≤ 0.0625 µg/mL
[5]; Streptococcus pneumoniae, S. pneumoniae, 13 clinical isolates, read-out: MIC90
  MIC90: 0.25 µg/mL (≈ 0.414 µM)
[6]; MIC 0.125 µg/mL
  Cumulative % of strains inhibited at MIC: 91.7%
  No. of strains inhibited at MIC: 49
[6]; MIC 0.5 µg/mL
  Cumulative % of strains inhibited at MIC: 100.0%
  No. of strains inhibited at MIC: 1
[6]; MIC […]
  Cumulative % of strains inhibited at MIC: 98.6%
  No. of strains inhibited at MIC: 5
[6]; MIC ≤[…]
  Cumulative % of strains inhibited at MIC: 23.6%
  No. of strains inhibited at MIC: 17
[6]; E. faecalis clinical isolates
  fold higher activity than comparator agents: 2- to 16 fold
[6]; E. faecalis, 72 clinical isolates
  MIC Range: ≤0.0625 to 0.5 µg/mL
[6]; [11]
  MIC50: 0.125 µg/mL (≈ 0.207 µM)
  MIC90: 0.125 µg/mL (≈ 0.207 µM)
[7]; MIC 0.125 µg/mL
  Cumulative % of strains inhibited at MIC: 21.3%
  No. of strains inhibited at MIC: 7
[7]; MIC 0.5 µg/mL
  Cumulative % of strains inhibited at MIC: 97.9%
  No. of strains inhibited at MIC: 3
[7]; MIC 1 µg/mL
  Cumulative % of strains inhibited at MIC: 100.0%
  No. of strains inhibited at MIC: 1
[7]; MIC […]
  Cumulative % of strains inhibited at MIC: 91.5%
  No. of strains inhibited at MIC: 33
[7]; MIC ≤[…]
  Cumulative % of strains inhibited at MIC: 6.4%
  No. of strains inhibited at MIC: 3
[7]; E. faecium clinical isolates
  fold higher activity than comparator agents: 16- to 128 fold
[7]; E. faecium, 47 clinical isolates
  MIC Range: ≤0.0625 to 1 µg/mL
[7]; Enterococcus faecium, E. faecium, 47 clinical isolates, read-out: MIC50
  MIC50: 0.25 µg/mL (≈ 0.414 µM)
[7]; Enterococcus faecium, E. faecium, 47 clinical isolates, read-out: MIC90
  MIC90: 0.25 µg/mL (≈ 0.414 µM)
[8]; Glaesserella parasuis, H. parasuis, 34 clinical isolates, read-out: MIC50
  MIC50: 0.5 µg/mL (≈ 0.828 µM)
[8]; Glaesserella parasuis, H. parasuis, 34 clinical isolates, read-out: MIC90
  MIC90: 2 µg/mL (≈ 3.31 µM)
[8]; MIC 0.125 µg/mL
  Cumulative % of strains inhibited at MIC: 17.6%
  No. of strains inhibited at MIC: 1
[8]; MIC 0.5 µg/mL
  Cumulative % of strains inhibited at MIC: 47.1%
  No. of strains inhibited at MIC: 6
[8]; MIC 1 µg/mL
  Cumulative % of strains inhibited at MIC: 67.6%
  No. of strains inhibited at MIC: 7
[8]; MIC 2 µg/mL
  Cumulative % of strains inhibited at MIC: 97.1%
  No. of strains inhibited at MIC: 10
[8]; MIC 4 µg/mL
  Cumulative % of strains inhibited at MIC: 100.0%
  No. of strains inhibited at MIC: 1
[8]; MIC […]
  Cumulative % of strains inhibited at MIC: 29.4%
  No. of strains inhibited at MIC: 4
[8]; MIC ≤[…]
  Cumulative % of strains inhibited at MIC: 14.7%
  No. of strains inhibited at MIC: 5
[8]; H. parasuis, 34 clinical isolates
  MIC Range: ≤0.0625 to 4 µg/mL
MRSE
  MIC: ≤ 0.0625 µg/mL
[9]
  MIC: 0.25 µg/mL (≈ 0.414 µM)
[10]; E. coli S30 T7 cell-free transcription/translation, 1 h, 37 °C, read-out: IC50 Inhib. of Protein Synthesis
  IC50: 2000 nM
[10]; relative to IC50 of LZD
  protein synthesis inhibition, fold greater than LZD: 2.5 fold
